What was measured:
Experiment in all cases: relative viability (nuclei count vs DMSO), 5 days (fraction); higher = more cells survive
[1] = compound: O=C(/C=C/c1cccnc1)NCCCCC1CCN(C(=O)c2ccccc2)CC1 [Daporinad] + COc1cc2c(Oc3ccc(NC(=O)C4(C(=O)Nc5ccc(F)cc5)CC4)cc3F)ccnc2cc1OCCCN1CCOCC1 [Foretinib] (partner 0.25 µM)
In short: (§1)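 Five library-drug doses in √10 steps were combined with a fixed anchor-drug dose, or a single drug was given alone, by pin tool to lung cancer cell lines in 1536-well plates the day after seeding. Nuclei were stained and counted after 5 days. Relative viability is the nuclei count in treated wells over that in vehicle wells, taken as the median of duplicate plates.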

[2] = compound: O=C(/C=C/c1cccnc1)NCCCCC1CCN(C(=O)c2ccccc2)CC1 [Daporinad] + CS(=O)(=O)N1CCN(Cc2cc3nc(-c4cccc5[nH]ncc45)nc(N4CCOCC4)c3s2)CC1 [Pictilisib] (partner 1 µM)
In short: as §1

[3] = compound: O=C(/C=C/c1cccnc1)NCCCCC1CCN(C(=O)c2ccccc2)CC1 [Daporinad]
In short: (§2)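 Vehicle-anchored 1536-well plates of lung cancer cell lines, held overnight at 37 °C, were pinned with five library-drug doses (not always all listed) spaced by √10. No medium change followed over the next 5 days, after which the cells were fixed, permeabilised and Hoechst-stained together and imaged at 4×. Nuclei were counted with MetaXpress, and viability is treated-well nuclei over vehicle-well nuclei, taken as a median across plates. Plates passed with control CV below 25% and at least one doubling.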

[4] = compound: COc1cc(Nc2ncc(F)c(Nc3ccc4c(n3)NC(=O)C(C)(C)O4)n2)cc(OC)c1OC [R406]
In short: as §2

Work on UMC-11 yielded a relative viability ([1]; first compound 0.0005 µM) of 1.11, a relative viability ([1]; first compound 0.001581 µM) of 1.05 and a relative viability ([1]; first compound 0.005 µM) of 1.34. For the same cell line, the relative viability ([1]; first compound 0.01581 µM) was 1.22, the relative viability ([2]; first compound 0.0005 µM) was 0.908 and the relative viability ([2]; first compound 0.001581 µM) was 0.668. The relative viability ([2]; first compound 0.005 µM) was 0.928, the relative viability ([2]; first compound 0.01581 µM) was 0.993 and the relative viability ([3]; 0.0005 µM) was 0.963. For the same cell line, the relative viability ([3]; 0.001581 µM) was 1.07, the relative viability ([3]; 0.005 µM) was 1.03 and the relative viability ([3]; 0.01581 µM) was 1.05. The relative viability ([4]; 0.08 µM) was 0.964, the relative viability ([4]; 0.253 µM) was 1.15 and the relative viability ([4]; 0.8 µM) was 1.16. It also gave a relative viability ([4]; 2.53 µM) of 0.861 and a relative viability ([4]; 8 µM) of 0.481.

From the supplement of paper PMC10307832
